Laboratory results published in patent EP4772500A1, “NOVEL ISOXAZOLE COMPOUND AS TM4SF5-SPECIFIC INHIBITOR AND USE THEREOF” (Seoul National University R&DB Foundation, priority 2023, dated 2025).

System: liver cancer patient-derived cancer fragments (HCC cube) confirmed to express TM4SF5
Assay: TM4SF5-expressing HCC-PDX (patient-derived tissue xenograft) model
Format: in vivo, NOD/SCID mice
Conditions: for body weight: 5 mg/kg IP twice a week (FIG. 21c); for tumor volume: vs vehicle (FIG. 21c); for PD-L1 expression / SLAMF7 staining / expression of TM4SF5: immunohistochemistry (FIG. 21e); for expressions of Ki67, AFP, F4/80, CCL2 and CCL5, and laminin γ2: immunohistochemistry (FIG. 21d); for cancer formation: immunohistochemistry or H&E staining (FIG. 21d)
Protocol: The experiment was conducted by obtaining patient-derived liver cancer segments (P0; HCC cube, 1 mm^3) confirmed to express TM4SF5 from Seoul National University Hospital, which passed the normal IRB approval process (H-2102-059-1195). The hair from the right thigh to the flank of 6-week-old male NOD/SCID mice was removed, and the mice were anesthetized by inhalation with […] isoflurane. Thereafter, a cancer segment was implanted into the right […] of the mice. When the cancer segments were engrafted and grew beyond a certain size at 4 to 5 weeks after implanting the tissue, the animals were sacrificed to obtain cancer segments (P1). The cancer segments were cut into a size of 1 mm^3 and placed in cryotubes with Recovery-Cell Culture Freezing Medium (Gibco) and stored in a […] liquid nitrogen tank. After obtaining P2 and P3 cancer segments in the same manner as above, one P3 cancer segment (1 mm^3) was implanted per 6-week-old male NOD/SCID mouse to establish the HCC-PDX mouse model used in this experiment. From the 8th day after implanting the cancer segments, vehicle, drug ST-5-001, or ST-5-002 was intraperitoneally injected at 5 mg/kg twice a week for a total of 6 times. On the 28th day after implanting the cancer tissue, the animals were sacrificed, and liver cancer tissues were obtained and used for analysis.
(a-d) A TM4SF5-expressing HCC-PDX model was established by implanting liver cancer patient-derived cancer fragments (HCC cube, 1 mm^3), confirmed to express TM4SF5, into the right thigh of 6-week-old male NOD/SCID mice (n=8) deficient in T, B, and NK immune cells. Starting from the 8th day after the tissue implantation, vehicle, drug ST-5-001, or ST-5-002 was intraperitoneally injected at 5 mg/kg twice a week on the indicated dates (a). After 6 injections, the animals were sacrificed on the 28th day after the cancer tissue implantation, liver tissues were obtained, and images of the livers were taken (b). From the 8th day after the implantation, body weight and tumor volume were measured and recorded on each drug injection day (c). Meanwhile, for a portion of the liver tissues, the expression level, distribution, and localization of each factor, as well as the degree of damage to the liver cancer tissue, were confirmed through immunohistochemistry or H&E staining for the given protein factors (d).

CC(=O)Nc1ccc(-c2cc(-c3ccc(O)cc3)no2)cc1 [ST-5-001, N-(4-(3-(4-hydroxyphenyl)isoxazole-5-yl)phenyl)acetamide] was tested, and the body weight was “not affected”, the tumor volume (5 mg/kg IP twice a week) was “significantly reduced” and the PD-L1 expression was “decrease”. The SLAMF7 staining was “infiltrating into the cancer site”, the “expression of TM4SF5” value was “not significantly different” and the “expressions of Ki67, AFP, F4/80, CCL2 and CCL5, and laminin γ2” value was “significantly inhibited and lowered”. For the same compound, the cancer formation was “inhibited”.
For Cc1ccc(C(=O)Nc2ccc(-c3cc(-c4ccc(O)cc4)no3)cc2)cc1 [ST-5-002, N-(4-(3-(4-hydroxyphenyl)isoxazole-5-yl)phenyl)-4-methylbenzamide], the body weight was “not affected”, the “inhibitory effect on liver cancer formation” value (5 mg/kg IP twice a week, 6 times, images (FIG. 21b)) was “distinct” and the tumor volume (5 mg/kg IP twice a week) was “significantly reduced”. The PD-L1 expression was “decrease”, the SLAMF7 staining was “infiltrating into the cancer site” and the “expression of TM4SF5” value was “not significantly different”. For the same compound, the “expressions of Ki67, AFP, F4/80, CCL2 and CCL5, and laminin γ2” value was “significantly inhibited and lowered” and the cancer formation was “inhibited”.
